Drawing on patent US11661426B2, “Imidazole-containing inhibitors of ALK2 kinase” (BioCryst Pharmaceuticals, Inc., priority 2017, dated 2023), this text covers IC50 for 8 compounds.

pIC50: −log10 of the molar value. Where only a bound is given, the exact number is not on record here.

Chain of ALK2 (Q04771 21-509): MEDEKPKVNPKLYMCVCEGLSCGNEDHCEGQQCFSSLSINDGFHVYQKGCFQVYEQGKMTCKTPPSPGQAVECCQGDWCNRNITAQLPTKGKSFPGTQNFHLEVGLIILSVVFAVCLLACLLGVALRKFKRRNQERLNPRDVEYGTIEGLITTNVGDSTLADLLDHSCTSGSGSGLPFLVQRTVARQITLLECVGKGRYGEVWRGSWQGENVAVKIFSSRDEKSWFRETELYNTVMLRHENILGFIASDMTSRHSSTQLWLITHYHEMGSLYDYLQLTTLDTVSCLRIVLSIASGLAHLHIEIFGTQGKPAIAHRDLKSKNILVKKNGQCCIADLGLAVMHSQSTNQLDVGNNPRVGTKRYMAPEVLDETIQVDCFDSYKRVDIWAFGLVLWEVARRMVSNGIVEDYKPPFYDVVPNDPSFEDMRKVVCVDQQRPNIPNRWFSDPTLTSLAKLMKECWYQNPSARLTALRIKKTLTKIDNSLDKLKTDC

This assay concerns the target ALK2 (Homo sapiens (Human), UniProt Q04771). The experiment in a line: ALK2 inhibition, LanthaScreen Eu Kinase Binding Assay (ThermoFisher Scientific / Life Technologies). The settings on record: read-out: Measured Ki (IC50) Value for Compounds: IC50. The procedure: Biochemical assays to measure the inhibitory effects of the compounds were performed by ThermoFisher Scientific (Life Technologies). ALK2 inhibition was tested using LanthaScreen™ Eu Kinase Binding Assay screening protocol.
Background: In TR-FRET formats the signal depends on donor and acceptor labels being close together.
What is called pIC50 is −log10 of the IC50, conventionally taken in molar units. With `O=C1OCc2ccc(-n3cnc(Nc4nc(N5CCC[C@H]5CO)nn5cccc45)c3)cc21` [Compound 469g, (S)-6-(4-((2-(2-(hydroxymethyl)pyrrolidin-1-yl)pyrrolo[2,1-f][1,2,4]triazin-4-yl)amino)-1H-imidazol-1-yl)isobenzofuran-1(3H)-one], the pIC50 is 6.00 to 7.00.
The same measure for `OC[C@@H]1CCCN1c1nc(Nc2cn([C@H]3CC[C@H](O)CC3)cn2)c2cccn2n1` [Compound 470e, (trans)-4-(4-((2-((S)-2-(hydroxymethyl)pyrrolidin-1-yl)pyrrolo[2,1-f][1,2,4]triazin-4-yl)amino)-1H-imidazol-1-yl)cyclohexanol]: 6.00 to 7.00; for `OC[C@@H]1CCCN1c1nc(Nc2cn([C@H]3C[C@H](O)C3)cn2)c2cccn2n1` [Compound 471e, (trans)-3-(4-((2-((S)-2-(hydroxymethyl)pyrrolidin-1-yl)pyrrolo[2,1-f][1,2,4]triazin-4-yl)amino)-1H-imidazol-1-yl)cyclobutanol]: > 7.00.
The same measure for `COc1cc(-n2cnc(Nc3nc(N4CCC[C@H]4CO)c4ccn(C(C)C)c4n3)c2)cc(OC)c1OC` [Compound 472c, (S)-(1-(7-isopropyl-2-((1-(3,4,5-trimethoxyphenyl)-1H-imidazol-4-yl)amino)-7H-pyrrolo[2,3-d]pyrimidin-4-yl)pyrrolidin-2-yl)methanol]: > 7.00.
In the case of `OC[C@@H]1CCCN1c1nc(Nc2cn([C@H]3CC[C@H](CO)CC3)cn2)c2cccn2n1` [Compound 474e, ((S)-1-(4-((1-((trans)-4-(hydroxymethyl)cyclohexyl)-1H-imidazol-4-yl)amino)pyrrolo[2,1-f][1,2,4]triazin-2-yl)pyrrolidin-2-yl)methanol], the pIC50 is > 7.00.
The figure for `Cc1cc(Cl)cc(-c2cnc(Nc3nc(N4CCC[C@H]4CO)nn4cccc34)s2)c1` [Compound 475c, (S)-(1-(4-((5-(3-chloro-5-methylphenyl)thiazol-2-yl)amino)pyrrolo[2,1-f][1,2,4]triazin-2-yl)pyrrolidin-2-yl)methanol] is < 6.00; for `COc1cc(-c2cnc(Nc3nc(N4CCC[C@H]4CO)c4cccn4n3)s2)cc(OC)c1OC` [Compound 476a, (S)-(1-(2-((5-(3,4,5-trimethoxyphenyl)thiazol-2-yl)amino)pyrrolo[2,1-f][1,2,4]triazin-4-yl)pyrrolidin-2-yl)methanol] it is > 7.00.
With “(R)-(1-(5-((1-(3,4,5-trimethoxyphenyl)-1H-imidazol-4-yl)amino)thiazolo[5,4-d]pyrimidin-7-yl)pyrrolidin-2-yl)methanol [Compound 323b]”, the pIC50 was > 7.00.
